{"source": "patent US20070281992A1", "about": "“COMBINATION OF GYRASE B INHIBITORS AND PROTEIN SYNTHESIS INHIBITORS AND USES THEREOF” (priority 2006, published 2007)", "key": {"[1]": {"test_system": "Methicillin-Resistant Staphylococcus aureus Isolates", "experiment": "MIC assay (NCCLS broth dilution), MRSA clinical isolates", "format": "cell-based", "conditions": "Staphylococcus aureus; for MIC: read-out: Minimal Inhibitory Concentration", "description": "Antibiotics: novobiocin, tetracycline, minocycline, oxacillin, and vancomycin were all purchased from Sigma-Aldrich. Linezolid was obtained from Pfizer, Inc. Novobiocin/tetracycline and novobiocin/minocycline were tested in a 2.5:1 ratio to mimic the serum levels. (Vavra, J. J., 1967, Development of resistance to novobiocin, tetracycline, and novobiocin-tetracycline combinations in Staphylococcus aureus populations, J. Bacteriol 93(3):801). Compounds were tested across a concentration range consisting of 11 two-fold serial dilutions of test agent.\nStock solutions were prepared in sterile deionized water; novobiocin stock concentration was 1600 μg/mL and all other drugs stock solutions were prepared at 640 μg/mL. The stock solutions were allowed to sit at room temperature for one hour to auto-sterilize prior to use in the test. All compounds were in solution in water. The control agent was vancomycin hydrochloride, Sigma Chemical Lot # 015K0825.\nThe test organisms for the assay were 52 MSSA, 52 MRSA, 8 VISA, 7 VISE, and 3 LRSA isolates. Quality control strains included Staphylococcus aureus 0100 (ATCC 29213) and Enterococcus faecalis (ATCC 29212).\nThe MIC assay was performed according to published NCCLS guidelines. (National Committee for Clinical Laboratory Standards, Methods for Dilution Antimicrobial Susceptibility Tests for Bacteria that Grow Aerobically; Approved Standard-Sixth Edition, NCCLS Document M7-A6 [ISBN 1-56238-486-4], NCCLS, 940 West Valley Road, Suite 1400, Wayne, Pa. 19087-1898 USA, 2003). The test medium was Mueller Hinton II Broth for all organisms."}, "[2]": {"test_system": "Staphylococcus aureus 0100 (ATCC 29213)", "conditions": "S. aureus ATCC 29213; accepted quality control range; cited from earlier work"}, "[3]": {"test_system": "Enterococcus faecalis (ATCC 29212)", "conditions": "E. faecalis ATCC 29212; accepted quality control range; cited from earlier work"}, "[4]": {"conditions": "52 MRSA isolates, combinations at 2.5:1, given as NB/partner"}}, "note": "Read-outs that look alike come from different tables or passages of the source."}
{"compound": "Cc1onc(-c2ccccc2)c1C(=O)N[C@@H]1C(=O)N2[C@@H]1SC(C)(C)[C@@H]2C(=O)O", "note": "[OX, oxacillin]", "values": [{"measurement": "MIC", "setting": "[1]; MRSA isolate 757, 24FEB06", "value": 32, "unit": "µg/mL"}, {"measurement": "MIC", "setting": "[1]; MRSA isolate 758, 03MAR06", "value": "> 32", "unit": "µg/mL"}, {"measurement": "MIC", "setting": "[1]; MRSA isolate 758, 24FEB06", "value": "> 32", "unit": "µg/mL"}, {"measurement": "MIC", "setting": "[1]; MRSA isolate 760, 03MAR06", "value": "> 32", "unit": "µg/mL"}, {"measurement": "MIC", "setting": "[1]; MRSA isolate 760, 24FEB06", "value": "> 32", "unit": "µg/mL"}, {"measurement": "MIC", "setting": "[1]; MRSA isolate 763, 22FEB06", "value": 32, "unit": "µg/mL"}, {"measurement": "MIC", "setting": "[1]; MRSA isolate 765, 22FEB06", "value": "> 32", "unit": "µg/mL"}, {"measurement": "MIC", "setting": "[1]; MRSA isolate 766, 22FEB06", "value": "> 32", "unit": "µg/mL"}, {"measurement": "MIC", "setting": "[1]; MRSA isolate 767, 22FEB06", "value": 16, "unit": "µg/mL"}, {"measurement": "MIC", "setting": "[1]; MRSA isolate 768, 22FEB06", "value": 8, "unit": "µg/mL"}, {"measurement": "MIC", "setting": "[1]; MRSA isolate 769, 22FEB06", "value": 16, "unit": "µg/mL"}, {"measurement": "MIC", "setting": "[1]; MRSA isolate 770, 22FEB06", "value": 16, "unit": "µg/mL"}, {"measurement": "MIC", "setting": "[1]; MRSA isolate 771, 22FEB06", "value": "> 32", "unit": "µg/mL"}, {"measurement": "MIC", "setting": "[1]; MRSA isolate 772, 22FEB06", "value": 32, "unit": "µg/mL"}, {"measurement": "MIC", "setting": "[1]; MRSA isolate 773, 24FEB06", "value": 8, "unit": "µg/mL"}, {"measurement": "MIC", "setting": "[1]; MRSA isolate 774, 24FEB06", "value": 32, "unit": "µg/mL"}, {"measurement": "MIC", "setting": "[1]; MRSA isolate 775, 24FEB06", "value": "> 32", "unit": "µg/mL"}, {"measurement": "MIC", "setting": "[1]; MRSA isolate 776, 24FEB06", "value": "> 32", "unit": "µg/mL"}, {"measurement": "MIC", "setting": "[1]; MRSA isolate 777, 24FEB06", "value": 32, "unit": "µg/mL"}, {"measurement": "MIC", "setting": "[1]; MRSA isolate 778, 24FEB06", "value": "> 32", "unit": "µg/mL"}, {"measurement": "MIC", "setting": "[1]; MRSA isolate 886, 24FEB06", "value": 32, "unit": "µg/mL"}, {"measurement": "MIC", "setting": "[1]; MRSA isolate 887, 24FEB06", "value": "> 32", "unit": "µg/mL"}, {"measurement": "MIC", "setting": "[1]; MRSA isolate 888, 24FEB06", "value": "> 32", "unit": "µg/mL"}, {"measurement": "MIC", "setting": "[1]; MRSA isolate 889, 24FEB06", "value": "> 32", "unit": "µg/mL"}, {"measurement": "MIC", "setting": "[1]; MRSA isolate 1004, 24FEB06", "value": 8, "unit": "µg/mL"}, {"measurement": "MIC", "setting": "[1]; MRSA isolate 1010, 22FEB06", "value": 32, "unit": "µg/mL"}, {"measurement": "MIC", "setting": "[1]; MRSA isolate 1012, 22FEB06", "value": "> 32", "unit": "µg/mL"}, {"measurement": "MIC", "setting": "[1]; MRSA isolate 1013, 22FEB06", "value": 32, "unit": "µg/mL"}, {"measurement": "MIC", "setting": "[1]; MRSA isolate 1014, 22FEB06", "value": 32, "unit": "µg/mL"}, {"measurement": "MIC", "setting": "[1]; MRSA isolate 1015, 22FEB06", "value": 32, "unit": "µg/mL"}, {"measurement": "MIC", "setting": "[1]; MRSA isolate 1016, 22FEB06", "value": 8, "unit": "µg/mL"}, {"measurement": "MIC", "setting": "[1]; MRSA isolate 1017, 22FEB06", "value": 16, "unit": "µg/mL"}, {"measurement": "MIC", "setting": "[1]; MRSA isolate 1021, 22FEB06", "value": 32, "unit": "µg/mL"}, {"measurement": "MIC", "setting": "[1]; MRSA isolate 1022, 22FEB06", "value": 8, "unit": "µg/mL"}, {"measurement": "MIC", "setting": "[1]; MRSA isolate 1023, 22FEB06", "value": 4, "unit": "µg/mL"}, {"measurement": "MIC", "setting": "[1]; MRSA isolate 1024, 22FEB06", "value": 16, "unit": "µg/mL"}, {"measurement": "MIC", "setting": "[1]; MRSA isolate 1025, 22FEB06", "value": 16, "unit": "µg/mL"}, {"measurement": "MIC", "setting": "[1]; MRSA isolate 1135, 22FEB06", "value": 32, "unit": "µg/mL"}, {"measurement": "MIC", "setting": "[1]; MRSA isolate 1136, 22FEB06", "value": 32, "unit": "µg/mL"}, {"measurement": "MIC", "setting": "[1]; MRSA isolate 1137, 22FEB06", "value": "> 32", "unit": "µg/mL"}, {"measurement": "MIC", "setting": "[1]; MRSA isolate 1138, 22FEB06", "value": 8, "unit": "µg/mL"}, {"measurement": "MIC", "setting": "[1]; MRSA isolate 1222, 03MAR06", "value": 32, "unit": "µg/mL"}, {"measurement": "MIC", "setting": "[1]; MRSA isolate 1222, 24FEB06", "value": 32, "unit": "µg/mL"}, {"measurement": "MIC", "setting": "[1]; MRSA isolate 1653, 03MAR06", "value": "> 32", "unit": "µg/mL"}, {"measurement": "MIC", "setting": "[1]; MRSA isolate 1658, 03MAR06", "value": 16, "unit": "µg/mL"}, {"measurement": "MIC", "setting": "[1]; MRSA isolate 1659, 03MAR06", "value": 16, "unit": "µg/mL"}, {"measurement": "MIC", "setting": "[1]; MRSA isolate 1661, 03MAR06", "value": "> 32", "unit": "µg/mL"}, {"measurement": "MIC", "setting": "[1]; MRSA isolate 1729, 03MAR06", "value": "> 32", "unit": "µg/mL"}, {"measurement": "MIC", "setting": "[1]; MRSA isolate 1730, 24FEB06", "value": 32, "unit": "µg/mL"}, {"measurement": "MIC", "setting": "[1]; MRSA isolate 2009, 24FEB06", "value": "> 32", "unit": "µg/mL"}, {"measurement": "MIC", "setting": "[1]; MRSA isolate 2010, 24FEB06", "value": 16, "unit": "µg/mL"}, {"measurement": "MIC", "setting": "[1]; MRSA isolate 2011, 24FEB06", "value": 32, "unit": "µg/mL"}, {"measurement": "MIC50", "setting": "[1]; [4]", "value": 32, "unit": "µg/mL"}, {"measurement": "MIC90", "setting": "[1]; [4]", "value": "> 32", "unit": "µg/mL"}, {"measurement": "CLSI QC Range (MIC)", "setting": "[2]", "value": "0.12 to 0.5", "unit": "µg/mL"}, {"measurement": "CLSI QC Range (MIC)", "setting": "[3]", "value": "8 to 32", "unit": "µg/mL"}]}
